Assay results reported in US7342021B2, “Phosphodiesterase 4 inhibitors” (Memory Pharmaceuticals Corp., priority 2001, dated 2008).
Structures can show the parent of a compound that is named as a salt.

Columns and labels:
[1] = Solubility of the mesylate salt in H2O; assay type: physicochemical
Method: To obtain the methansulphonate salt (mesylate salt), 4 ml of 0.1N CH3SO3H in EtOAc was added to a solution of 145 mg (0.4 mmol) 6-cyclopropylamino-9-(2-fluorobenzyl)-2-trifluoromethylpurine in EtOAc. Then, 1 ml of hexane was added to a warm solution and the resultant mixture was allowed to crystallize (within a refrigerator). The solid was collected to give 148 mg of the mesylate salt. […] M.p. 167.5-169.0 C; m.p. 114-118 C for free base.

[2] = system: rats; experiment: Radial arm maze task in rats, an in vivo test for learning and memory; parameters: species or system rat; conditions: MK-801 0.1 mg/kg i.p., compared to control, p<0.01
Method: The test was performed as previously described (Zhang, H.-T., Crissman, A. M., Dorairaj, N. R., Chandler, L. J., and O'Donnell, J. M., Neuropsychopharmacology, 2000, 23, 198-204.). Five days after initial housing, rats (male Spraque-Dawley (Harlan) weighing 250 to 350 g) were placed in the eight-arm radial maze (each arm was 60×10×12 cm high; the maze was elevated 70 cm above the floor) for acclimation for two days. Rats were then placed individually in the center of the maze for 5 minutes with food pellets placed close to the food wells, and then, the next day, in the wells at the end of the arms; 2 sessions a day were conducted. Next, four randomly selected arms were then baited with one pellet of food each. The rat was restricted to the center platform (26 cm in diameter) for 15 seconds and then allowed to move freely throughout the maze until it collected all pellets of food or 10 minutes passed, whichever came first. Four parameters were recorded: 1) working memory errors, i.e., entries into baited arms that had already been visited during the same trial; 2) reference memory errors, i.e., entries into unbaited arms; 3) total arm entries; and 4) the test duration (seconds), i.e., the time spent in the collection of all the pellets in the maze. […]
(§1) All data were analyzed by analyses of variance (ANOVA); individual comparisons were made using Kewman-Keuls tests. […]

[3] = system: rats; experiment: Passive avoidance in rats, an in vivo test for learning and memory; parameters: species or system rat; conditions: MK-801 0.1 mg/kg pretreatment, retention test 24 hours after electric shock, compared to the vehicle, p<0.001
Method: The test was performed as previously described (Zhang, H.-T., Crissman, A. M., Dorairaj, N. R., Chandler, L. J., and O'Donnell, J. M., Neuropsychopharmacology, 2000, 23, 198-204.). The apparatus (Model E10-16SC, Coulbourn Instruments, Allentown, Pa.) consisted of a two-compartment chamber with an illuminated compartment connected to a darkened compartment by a guillotine door. The floor of the darkened compartment consisted of stainless steel rods through which an electric foot-shock could be delivered from a constant current source. All experimental groups were first habituated to the apparatus the day before the start of the experiment. During the training, the rat (Male Spraque-Dawley (Harlan) weighing 250 to 350 g) was placed in the illuminated compartment facing away from the closed guillotine door for 1 minute before the door was raised. The latency for entering the darkened compartment was recorded. After the rat entered the darkened compartment, the door was closed and a 0.5 mA electric shock was administered for 3 seconds. […] The latency for entering the darkened compartment was recorded for up to 180 seconds, at which time the trial was terminated.
as §1

SMILES: Fc1ccccc1Cn1cnc2c(NC3CC3)nc(C(F)(F)F)nc21 [Example 4 mesylate salt, 6-cyclopropylamino-9-(2-fluorobenzyl)-2-trifluoromethylpurine]
- solubility in H2O [1]: relatively insoluble

SMILES: C[C@]12N[C@H](Cc3ccccc31)c1ccccc12 [MK-801]
- reference memory errors (frequency) [2]: increased the frequencies
- working memory errors (frequency) [2]: increased the frequencies
- latency for entering the darkened compartment [3]: markedly reduced this latency
